# Data published in patent US11541057B2, “Thienopyrimidinone NMDA receptor modulators and uses thereof” (Cadent Therapeutics, Inc., priority 2015, dated 2023).
# Target: T1, NMDA receptor GRIN1/GRIN2B (NR2B) expressed in HEK293 cells (Homo sapiens, UniProt Q13224)
# T1 construct: host or cells: HEK293
# Assay: Reversal of Ro 25-6981-mediated suppression of the Ca2+ response (fluo-8 fluorescence, FDSS) in HEK293 cells expressing GRIN1 and GRIN2B
# Assay type: cell-based
# Settings: % reversal=100*(R−Rneg)/(Rpos−Rneg) of Ro 25-6981 suppression of co-agonist (glutamate/glycine) Ca2+ response, 10 min pre-incubation, compound concentration not given
# Protocol: HEK293 cells with constructs conferring stable expression of the GRIN1 gene and tetracycline-inducible expression of the GRIN2B gene (Chantest, Cleveland, Ohio) are grown to ˜75% confluence in tissue culture flasks at 37° C., 5% CO2. NR2B expression is induced by overnight incubation with 0.3-0.4 μg/ml tetracycline in the presence of 2.5 mM ARL-15896 at 37° C., followed by moving to 30° C. for 3-5 hours. Cells are next harvested using TripleExpress™ (Life Technologies, Carlsbad, Calif.) according to the manufacturer's instructions, first removing culture medium, rinsing with Dulbecco's phosphate buffered saline (Ca^2+ and Mg^2+-free), and then adding the TripleExpress™ reagent. Harvested cells are spun down, washed twice in Ca^2+- and Mg^2+-free Hank's Balanced Salt Solution with 20 mM HEPES and 10 mM glucose, pH 7.4 (HHnoCa solution), and counted with viability assessed using Trypan Blue. Cells are loaded with fluo-8 Ca^2+-sensitive dye in HHnoCa solution according to the manufacturer's directions (AAT Bioquest, Sunnyvale, Calif.), incubating at 37° C. for 20 minutes followed by 25 minutes at 22-25° C. After a wash in HHnoCa to remove extracellular dye, cells are resuspended in HHnoCa and plated at […] cells per well in a volume of 25 μl/well in 384 well black-wall, clear bottom plates (Hamamatsu, Middlesex, N.J.). Plates are then centrifuged to create a monolayer in the wells and stored in the dark until used.
# Prior to analysis, compound plates are prepared with each compound at 6× the final desired concentration. From stock solutions at 10 mM in 100% DMSO, compounds are spotted in the desired amounts using an ECHO liquid handler (Labcyte, Sunnyvale, Calif.) into wells of a 384-well plate and then diluted with 50 μl of HHnoCa containing 750 nM Ro 25-6981 and 120 μM 5,7-dichlorokynurenic acid (both purchased from Tocris Bioscience (Bristol, England) and maintained as 10 mM stock solutions in 100% DMSO). To insure complete compound dissolution, these plates are then placed in an orbital shaker for at least one hour. Also prepared prior to the assay is a co-agonist plate containing HHnoCa with 240 μM glutamate, 2.4 mM glycine, and 7.2 mM CaCl2, which is 2.4× the desired final concentration of each reagent. Both the compound plate and co-agonist plate are 384-well polypropylene plates from Thermo Fisher Scientific, Waltham, Mass.
# The assay is performed by first adding 10 μl solution from each well of the compound plate described above to the cell plate using a CyBiWell liquid handler (Analytik Jena AG, Jena, Germany), followed by 10 minutes pre-incubation in the dark. Cell plates are then loaded onto a Hamamatsu FDSS 6000 plate reader. After a 30-second baseline, 25 μl is added to each well from the co-agonist plate, and the fluorescence signal is recorded for another 2 minutes. FDSS software applies shading and autofluorescence correction, and resultant raw fluorescence measurements are exported in the form of a fluorescence ratio for each well to its own reading at time zero in the experiment. In each plate, negative control wells consist of wells where Ro 25-6981 and 5,7 dichlorokynurenic acid are present and co-agonist is applied in the absence of any added assay compound. Under these conditions, the Ca^2+ response to co-agonist is suppressed. Positive control wells also present in each plate contain 5,7 dichlorokynurenic acid but no Ro 25-6981, so that co-agonist addition results in a large Ca^2+ response. Compounds tested are evaluated on the basis of their ability to reverse the suppression of the Ca^2+ response mediated by Ro 25-6981, which is quantified as % reversal=100*(R−Rneg)/(Rpos−Rneg) where R is the fluorescence ratio for the test compound at the end of the experiment and Rneg and Rpos are the end ratios for the negative and positive controls, respectively. […]
# T1 sequence (Q13224 27-1484, other chains not shown): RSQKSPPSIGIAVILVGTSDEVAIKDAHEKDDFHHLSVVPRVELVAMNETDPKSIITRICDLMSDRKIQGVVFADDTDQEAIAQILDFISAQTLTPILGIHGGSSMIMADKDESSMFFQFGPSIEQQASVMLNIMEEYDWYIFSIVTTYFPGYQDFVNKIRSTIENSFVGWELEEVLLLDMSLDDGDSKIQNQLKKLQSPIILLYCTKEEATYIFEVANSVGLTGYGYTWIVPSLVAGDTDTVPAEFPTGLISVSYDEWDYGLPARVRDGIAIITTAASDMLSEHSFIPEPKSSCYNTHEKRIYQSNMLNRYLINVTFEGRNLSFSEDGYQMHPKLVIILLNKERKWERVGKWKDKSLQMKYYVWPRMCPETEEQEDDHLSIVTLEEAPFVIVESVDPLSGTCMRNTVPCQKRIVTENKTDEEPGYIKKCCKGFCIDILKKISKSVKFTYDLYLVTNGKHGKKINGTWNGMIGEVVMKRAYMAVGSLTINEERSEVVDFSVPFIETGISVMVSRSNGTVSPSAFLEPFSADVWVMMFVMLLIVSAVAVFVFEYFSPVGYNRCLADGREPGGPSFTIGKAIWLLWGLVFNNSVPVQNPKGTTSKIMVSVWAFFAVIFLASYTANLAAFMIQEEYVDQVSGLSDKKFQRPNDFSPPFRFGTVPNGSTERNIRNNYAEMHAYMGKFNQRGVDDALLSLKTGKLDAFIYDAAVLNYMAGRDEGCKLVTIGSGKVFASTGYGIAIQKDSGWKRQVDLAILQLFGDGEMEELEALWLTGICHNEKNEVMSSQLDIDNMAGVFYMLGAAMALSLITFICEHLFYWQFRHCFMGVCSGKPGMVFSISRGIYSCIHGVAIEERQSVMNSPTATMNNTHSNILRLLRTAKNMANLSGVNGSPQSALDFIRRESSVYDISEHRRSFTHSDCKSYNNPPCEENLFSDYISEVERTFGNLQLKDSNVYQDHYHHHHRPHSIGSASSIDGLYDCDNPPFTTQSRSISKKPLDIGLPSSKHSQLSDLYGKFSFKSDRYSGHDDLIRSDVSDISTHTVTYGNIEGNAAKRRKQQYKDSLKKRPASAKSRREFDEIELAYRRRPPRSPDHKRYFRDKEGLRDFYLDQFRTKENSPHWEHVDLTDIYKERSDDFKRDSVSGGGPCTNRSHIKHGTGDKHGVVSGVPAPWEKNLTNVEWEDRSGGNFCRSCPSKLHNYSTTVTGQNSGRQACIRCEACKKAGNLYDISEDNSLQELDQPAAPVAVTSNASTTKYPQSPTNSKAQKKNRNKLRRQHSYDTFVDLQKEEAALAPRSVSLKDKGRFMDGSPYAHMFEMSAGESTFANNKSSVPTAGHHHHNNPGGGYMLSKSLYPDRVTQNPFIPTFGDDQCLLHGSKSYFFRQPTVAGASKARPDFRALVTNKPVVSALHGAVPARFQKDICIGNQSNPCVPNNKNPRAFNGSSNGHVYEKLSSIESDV
row,Response Recovered (%),SMILES
1,1,"Cn1nccc1-c1csc2ncn(CC(=O)N3CCCC3)c(=O)c12 [Example 33, 5-(1-methyl-1H-pyrazol-5-yl)-3-[2-oxo-2-(pyrrolidin-1-yl)ethyl]-3H,4H-thieno[2,3-d]pyrimidin-4-one]"
2,16,"O=C(Cn1cnc2scc(-c3ccc(OC(F)(F)F)cc3)c2c1=O)N1CCCC1 [Example 34, 3-[2-oxo-2-(pyrrolidin-1-yl)ethyl]-5-[4-(trifluoromethoxy)phenyl]-3H,4H-thieno[2,3-d]pyrimidin-4-one]"
3,14,"CC(C)(C)c1ccc(-c2csc3ncn(CC(=O)N4CCCC4)c(=O)c23)cc1 [Example 35, 5-(4-tert-butylphenyl)-3-[2-oxo-2-(pyrrolidin-1-yl)ethyl]-3H,4H-thieno[2,3-d]pyrimidin-4-one]"
4,2,"COc1ccc(-c2csc3ncn(CC(=O)N4CCCC4)c(=O)c23)cn1 [Example 36, 5-(6-methoxypyridin-3-yl)-3-[2-oxo-2-(pyrrolidin-1-yl)ethyl]-3H,4H-thieno[2,3-d]pyrimidin-4-one]"
5,61,"O=C(Cn1cnc2scc(-c3ccc(Cl)c(Cl)c3)c2c1=O)N1CCCC1 [Example 37, 5-(3,4-dichlorophenyl)-3-[2-oxo-2-(pyrrolidin-1-yl)ethyl]-3H,4H-thieno[2,3-d]pyrimidin-4-one]"
6,10,O=C(Cn1cnc2scc(-c3ccc(C(F)(F)F)cc3F)c2c1=O)N1CCCC1 [Example 38]
7,3,"O=C(Cn1cnc2scc(-c3cncc(F)c3)c2c1=O)N1CCCC1 [Example 39, 5-(5-fluoropyridin-3-yl)-3-[2-oxo-2-(pyrrolidin-1-yl)ethyl]-3H,4H-thieno└2,3-d┘pyrimidin-4-one]"
8,1,"O=C(Cn1cnc2scc(-c3cncnc3)c2c1=O)N1CCCC1 [Example 40, 3-[2-oxo-2-(pyrrolidin-1-yl)ethyl]-5-(pyrimidin-5-yl)-3H,4H-thieno[2,3-d]pyrimidin-4-one]"
9,5,"COc1ccc(-c2csc3ncn(CC(=O)N4CCCC4)c(=O)c23)cc1 [Example 41, 5-(4-methoxyphenyl)-3-[2-oxo-2-(pyrrolidin-1-yl)ethyl]-3H,4H-thieno[2,3-d]pyrimidin-4-one]"
10,3,"O=C(Cn1cnc2scc(-c3ccc(F)c(F)c3)c2c1=O)N1CCCC1 [Example 42, 5-(3,4-difluorophenyl)-3-[2-oxo-2-(pyrrolidin-1-yl)ethyl]-3H,4H-thieno[2,3-d]pyrimidin-4-one]"
11,8,"O=C(Cn1cnc2scc(-c3ccc(C(F)(F)F)cc3Cl)c2c1=O)N1CCCC1 [Example 43, 5-[2-chloro-4-(trifluoromethyl)phenyl]-3-[2-oxo-2-(pyrrolidin-1-yl)ethyl]-3H,4H-thieno[2,3-d]pyrimidin-4-one]"
12,4,"COc1ccc(C(F)(F)F)cc1-c1csc2ncn(CC(=O)N3CCCC3)c(=O)c12 [Example 44, 5-[2-methoxy-5-(trifluoromethyl)phenyl]-3-[2-oxo-2-(pyrrolidin-1-yl)ethyl]-3H,4H-thieno[2,3-d]pyrimidin-4-one]"
13,7,"O=C(Cn1cnc2scc(-c3cccc(Cl)c3Cl)c2c1=O)N1CCCC1 [Example 45, 5-(2,3-dichlorophenyl)-3-[2-oxo-2-(pyrrolidin-1-yl)ethyl]-3H,4H-thieno[2,3-d]pyrimidin-4-one]"
14,−1,"O=C(Cn1cnc2scc(-c3ccnc(C(F)(F)F)c3)c2c1=O)N1CCCC1 [Example 46, 3-[2-oxo-2-(pyrrolidin-1-yl)ethyl]-5-[2-(trifluoromethyl)pyridin-4-yl]-3H,4H-thieno[2,3-d]pyrimidin-4-one]"
15,43,"O=C(Cn1cnc2scc(-c3ccc(F)c(C(F)(F)F)c3)c2c1=O)N1CCCC1 [Example 47, 5-[4-fluoro-3-(trifluoromethyl)phenyl]-3-[2-oxo-2-(pyrrolidin-1-yl)ethyl]-3H,4H-thieno[2,3-d]pyrimidin-4-one]"
16,−1,"O=C(Cn1cnc2scc(-c3cc(C(F)(F)F)cc(C(F)(F)F)c3)c2c1=O)N1CCCC1 [Example 48, 5-[3,5-bis(trifluoromethyl)phenyl]-3-[2-oxo-2-(pyrrolidin-1-yl)ethyl]-3H,4H-thieno[2,3-d]pyrimidin-4-one]"
17,0,"CN(C)c1ccc(-c2csc3ncn(CC(=O)N4CCCC4)c(=O)c23)cc1 [Example 49, 5-[4-(dimethylamino)phenyl]-3-[2-oxo-2-(pyrrolidin-1-yl)ethyl]-3H,4H-thieno[2,3-d]pyrimidin-4-one]"
18,9,Cc1cc(C(F)(F)F)ccc1-c1csc2ncn(CC(=O)N3CCCC3)c(=O)c12 [Example 50]
19,27,"O=C(Cn1cnc2scc(-c3cccc(OC(F)(F)F)c3)c2c1=O)N1CCCC1 [Example 51, 3-[2-oxo-2-(pyrrolidin-1-yl)ethyl]-5-[3-(trifluoromethoxy)phenyl]-3H,4H-thieno└2,3-d┘pyrimidin-4-one]"
20,4,"O=C(Cn1cnc2scc(-c3ccccc3Cl)c2c1=O)N1CCCC1 [Example 52, 5-(2-chlorophenyl)-3-[2-oxo-2-(pyrrolidin-1-yl)ethyl]-3H,4H-thieno[2,3-d]pyrimidin-4-one]"
21,5,"O=C(Cn1cnc2scc(-c3ccc(F)cc3Cl)c2c1=O)N1CCCC1 [Example 53, 5-(2-chloro-4-fluorophenyl)-3-[2-oxo-2-(pyrrolidin-1-yl)ethyl]-3H,4H-thieno└2,3-d┘pyrimidin-4-one]"
22,20,"O=C(Cn1cnc2scc(-c3cc(C(F)(F)F)ccc3F)c2c1=O)N1CCCC1 [Example 54, 5-[2-fluoro-5-(trifluoromethyl)phenyl]-3-[2-oxo-2-(pyrrolidin-1-yl)ethyl]-3H,4H-thieno[2,3-d]pyrimidin-4-one]"
23,33,"O=C(Cn1cnc2scc(-c3cccc(C(F)(F)F)c3)c2c1=O)N1CCCC1 [Example 55, 3-[2-oxo-2-(pyrrolidin-1-yl)ethyl]-5-[3-(trifluoromethyl)phenyl]-3H,4H-thieno[2,3-d]pyrimidin-4-one]"
24,0,"CC(C(=O)N1CCCC1)n1cnc2scc(-c3ccc(Cl)c(C(F)(F)F)c3)c2c1=O (stereo not shown) [Example 56, 5-[4-chloro-3-(trifluoromethyl)phenyl]-3-[1-oxo-1-(pyrrolidin-1-yl)propan-2-yl]-3H,4H-thieno[2,3-d]pyrimidin-4-one]"
25,3,"CC(C(=O)N1CCCC1)n1cnc2scc(-c3ccc(F)c(Cl)c3)c2c1=O (stereo not shown) [Example 57, 5-(3-chloro-4-fluorophenyl)-3-[1-oxo-1-(pyrrolidin-1-yl)propan-2-yl]-3H,4H-thieno[2,3-d]pyrimidin-4-one]"
26,65,"O=C(Cn1cnc2scc(-c3ccc(F)c(Cl)c3)c2c1=O)N1CCC(F)C1 (stereo not shown) [Example 58, 5-(3-chloro-4-fluorophenyl)-3-[2-(3-fluoropyrrolidin-1-yl)-2-oxoethyl]-3H,4H-thieno[2,3-d]pyrimidin-4-one]"
27,43,"O=C(Cn1cnc2scc(-c3ccc(Cl)c(F)c3)c2c1=O)N1CCC(F)C1 (stereo not shown) [Example 59, 5-(4-chloro-3-fluorophenyl)-3-[2-(3-fluoropyrrolidin-1-yl)-2-oxoethyl]-3H,4H-thieno[2,3-d]pyrimidin-4-one]"
28,98,"O=C(Cn1cnc2scc(-c3ccc(Cl)c(Cl)c3)c2c1=O)N1CCC(F)C1 (stereo not shown) [Example 60, 5-(3,4-dichlorophenyl)-3-[2-(3-fluoropyrrolidin-1-yl)-2-oxoethyl]-3H,4H-thieno[2,3-d]pyrimidin-4-one]"
